Measured values published in patent publication US9150568B2, “Compositions and methods for modulating FXR” (NOVARTIS AG, priority 2010, dated 2015).

Molecular target: T1, human Farnesoid X Receptor (FXR) ligand binding domain (GST-FXR LBD) (Homo sapiens, UniProt Q96RI1)
T1 construct: purchased Invitrogen
T1 sequence (Q96RI1 193-472 isoform Q96RI1-2): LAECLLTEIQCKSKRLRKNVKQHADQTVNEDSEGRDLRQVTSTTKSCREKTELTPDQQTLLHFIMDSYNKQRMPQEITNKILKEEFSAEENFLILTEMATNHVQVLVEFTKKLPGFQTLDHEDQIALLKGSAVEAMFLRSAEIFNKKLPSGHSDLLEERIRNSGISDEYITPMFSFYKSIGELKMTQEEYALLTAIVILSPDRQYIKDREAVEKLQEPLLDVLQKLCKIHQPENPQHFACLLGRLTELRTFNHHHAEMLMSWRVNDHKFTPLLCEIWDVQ
Assay: Human GST-FXR LBD co-activator interaction assay (HTRF)
Assay type: biochemical
Settings: GST-FXR LBD / biotin-SRC-1 peptide FRET; response relative to GW4064; read-out: FXR Co-activator interaction assay (EC50)
Procedure, shortened: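 FRET (HTRF) read-out of ligand-induced binding between GST-FXR LBD and an SRC-1 peptide, detected with anti-GST cryptate and streptavidin-XL665 in buffer with 50 mM KF. Response % was normalized to DMSO and to the maximal GW4064 response. EC50 came from a four-parameter fit.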

Row | SMILES | EC50 [nM]
1 | O=C(O)c1ccc(N2C3CC[C@H]2CC(OCc2c(-c4cccnc4C(F)(F)F)noc2C2CC2)C3)nc1 (stereo partly shown) [Example 30-73] | 74
2 | O=C(O)c1csc(N2C3CC[C@H]2CC(OCc2c(-c4ccccc4OC(F)(F)F)noc2C2CC2)C3)n1 (stereo partly shown) [Example 30-74] | 3
3 | O=C(O)c1cnc(N2C3CC[C@H]2CC(OCc2c(-c4ccccc4OC(F)(F)F)noc2C2CC2)C3)s1 (stereo partly shown) [Example 30-75] | 17
4 | O=C(O)c1cnc(N2C3CC[C@H]2CC(OCc2c(-c4ccccc4C(F)(F)F)noc2C2CC2)C3)s1 (stereo partly shown) [Example 30-76] | 16
5 | O=C(O)c1cn2nc(N3C4CC[C@H]3CC(OCc3c(-c5ccccc5C(F)(F)F)noc3C3CC3)C4)ccc2n1 (stereo partly shown) [Example 31-2] | 13
6 | O=C(O)c1cc2nc(N3C4CC[C@H]3CC(OCc3c(-c5ccccc5OC(F)(F)F)noc3C3CC3)C4)ccn2n1 (stereo partly shown) [Example 31-3] | 2
7 | O=C(O)c1cc2nc(N3C4CC[C@H]3CC(OCc3c(-c5ccccc5C(F)(F)F)noc3C3CC3)C4)ccn2n1 (stereo partly shown) [Example 31-4] | 4
8 | O=C(O)c1cn2nc(N3[C@@H]4CC[C@H]3C[C@@H](OCc3c(-c5c(F)cccc5F)noc3C3CC3)C4)ccc2n1 [Example 31-5] | 10
9 | Cc1cccc(F)c1-c1noc(C2CC2)c1CO[C@H]1C[C@H]2CC[C@@H](C1)N2c1ccc2nc(C(=O)O)cn2n1 [Example 31-6] | 9
10 | O=C(O)c1cnn2ccc(N3[C@@H]4CC[C@H]3C[C@@H](OCc3c(-c5ccccc5OC(F)(F)F)noc3C3CC3)C4)cc12 [Example 32-2] | 4
